Measurements: patent EP1061896B1, “COSMETIC METHOD OF TREATING SKIN” (UNILEVER PLC, priority 1998, dated 1999)
Read-outs that look alike come from different tables or passages of the source.

Legend:
PGE2 [1] = experiment: Fibroblast PGE2 assay, PMA-induced; assay type: cell-based; details: human skin fibroblasts, N=4
Experimental: Intracellular adhesion molecules (ICAM) and PEG2 production by human skin fibroblasts can be induced by the inflammatory stimulus PMA (phorbal myristate acetate). PMA represents an external stressor which induces oxidative stress and inflammatory responses in cells. This model is used to model inflammation in vivo.
Primary human foreskin fibroblasts at passage 2 (P2) were seeded into 96-well plates at 10000 cells/well and maintained for 24 hours in an atmosphere of 5% carbon dioxide in Dulbeccos Modified Eagles Medium (DMEM) supplemented with 10% foetal calf serum. […] Phorbal myristate acetate (PMA) (Sigma) was added to the media and the cells incubated for a further 24 hours. […] The fibroblasts/media were then analysed as described below immediately or snap frozen in liquid nitrogen and stored at -70°C for future analysis. The cells were then counted and data from the dot-blot analysis subsequently standardised to cell number.
Prostaglandin E2 (PGE2) assay: Volumes of 50 µl culture medium were taken for PGE2 assay after gently shaking the culture plate. PGE2 levels in the medium were determined with a Biotrak PGE2 immunoassay kit (Amersham, UK). The assay is based on the competition between unlabelled PGE2 in the sample and a fixed quantity of horseradish peroxidase labelled PGE2 for a limited amount of fixed PGE2 specific antibody. Concentrations of unlabelled sample PGE2 are determined according to a standard curve which was obtained at the same time.

Keratinocytes [2] = experiment: Keratinocyte SDS viability assay (Neutral Red method); assay type: cell-based; details: 24 hours, n=8
Experimental: (§1) After incubating for 24 hours the medium was removed and the viability determined by the Neutral Red method.

PGE2 [3] = experiment: Keratinocyte PGE2 assay (basal release, enzyme-linked immunoassay); assay type: cell-based; details: 24 hours, unstimulated keratinocytes, n=4, Control 197.9
Experimental: This was then replaced with KGM without hydrocortisone for 24-48 hours. No petroselinic acid was added to the control cells. […] At the end of the incubation the medium was harvested and assayed for the basal release of the pro-inflammatory PGE2 by enzyme-linked immuno assay using a commercial PGE2 kit (Amersham, Buckinghamshire, England).
The anti-inflammatory potential of the test compounds were assessed by the ability of the compounds to reduce the basal levels of secreted PGE2 as compared to the control. Statistical significance was determined using the Student's t-test.

[4] = system: B16-F1 mouse melanoma cells; experiment: Pigmentation assay (melanin in media, absorbance at 530 nm); assay type: cell-based; details: 72 hours, n=4, read-out: Melanin in Media % Control
Experimental: (§2) • * Cell maintenance B16-F1 mouse melanoma cells (American Type Culture Collection, Maryland, USA) were maintained in 75 cm^2 culture flasks in RPMI 1640 medium (ICN-Flow, cat. no. 12-60-54) supplemented with L-glutamine (4 mM) and 10% foetal bovine serum (FBS) at 37°C in a water saturated, 5% CO2 in air atmosphere. Cells were passaged twice weekly. • * Pigmentation Assay Subconfluent B16 cells were seeded in 96 well microtiter plates at a density of 5000 cells/well and cultured overnight in DMEM (Life Technologies, NY) containing 10% foetal bovine serum and 1% penicillin/streptomycin without phenol red at 37°C under 5% CO2. After 24 hours, the media was replaced with fresh media containing the test materials or vehicle controls. Cells were incubated for 72 hours at which time melanin was visible in the control wells. Next, the melanin containing media from each well was transferred to a clean 96 well plate and quantified by reading the absorbance at 530 nm using a microplate spectrophotometer (Dynatech MR5000) and correcting for the baseline absorption of fresh medium. As the corrected absorption is proportional to the melanin concentration the percentage pigmentation for a skin lightening test substance can be calculated as: % pigmentation = (OD530 test/OD530 ref) x 100% [formula] where OD530 test and OD530 ref indicate the average corrected absorption of the medium from the wells with the test substance and that of the medium from the wells without the test substance. The percentage inhibition caused by the test substance is then 100 - % pigmentation. • * Cell viability assay Melanin production may be reduced by inhibition of melanogenesis but it may also be affected by cytotoxicity or cell proliferation. To test whether this occurred cell viability was tested by neutral red dye absorption. Neutral red is a water soluble dye that passes through the intact plasma membrane and becomes concentrated in the lysosomes in intact cells. Total neutral red dye uptake is proportional to the number of viable cells in culture. Immediately following the removal of medium for melanin analysis from the microtitre wells, 200 µl fresh prewarmed neutral red dye (ex. Sigma, UK, Cat. Nr 2889) at 25 µg/ml medium was applied to the cells and incubated for 3 hours as for cell maintenance. Dye which had not been taken up by the cells was removed by inversion of the plate and tapping on abscrbent paper. The cells were washed with 200 µl PBS, which was then removed again. 100 µl solvent (50% H2O, 49% ethanol, 1% acetic acid) was added. After 20 minutes at ambient temperature each plate was shaken for 5 seconds on a microtitre plate shaker. The absorption was measured as described above.

[5] = Cell viability assay by neutral red dye absorption in the pigmentation assay; assay type: cell-based; details: mouse, b16-f1 cells, n=4, read-out: Neutral Red Cell Viability % Control
Experimental: as §2

Keratinocytes [6] = experiment: Keratinocyte viability by neutral red uptake after the PGE2 assay; assay type: cell-based; details: 24 hours, at the concentrations tested (0.1 and 1 µM)
Experimental: as §1
The cells were then tested for viability by the neutral red up-take method described in example 2 above.

procollagen-I = experiment: Immunohistochemical analysis of forearm skin biopsies after topical treatment: procollagen-I expression; assay type: in vivo, human; details: compared with placebo forearm
Source text: (§3) Two groups of women were recruited with identical or nearly identical degrees of mild to moderate photodamage on each outer forearm. They were supplied with 0.05% retinoic acid in a moisturising base (Retinova®) and also with a colour matched moisturising cream with similar sensory characteristics (Dermacare® lotion), but no active ingredients, as a placebo control. Each participant of the two groups applied the Retinova® to one outer forearm and placebo (Dermacare®) to the other outer forearm. Group 1 applied the products daily to their outer forearms for 14 weeks and the Group 2 applied the products to their outer forearms for 28 weeks. At the end of the studies two full thickness 4mm punch biopsies were taken from the treated areas of each forearm. Immunohistochemical analysis of the biopsy tissue taken from the participants was performed to identify the effect of retinoic acid treatment on the expression of the skin extracellular matrix components, decorin and procollagen-I, as compared with the placebo treated forearms. The following procedure was followed:
(§4) Antibody dilution buffer for wax sections was composed of Tris Buffered Saline (TBS), 3% bovine serum albumin (BSA), 0.05% Triton X-100 and 0.05% sodium azide. […]

decorin = experiment: Immunohistochemical analysis of forearm skin biopsies after topical treatment: decorin expression; assay type: in vivo, human; details: compared with placebo forearm
Source text: as §3, §4

[7] = Group 1 after 14 weeks, 16 participants, 0.05% retinoic acid (Retinova®) daily on outer forearm
[8] = Group 2 after 28 weeks, 15 participants, 0.05% retinoic acid (Retinova®) on outer forearm

SMILES: CCCCCCCCCCCCCC(=O)O[C@@H]1[C@@H](C)[C@@]2(O)[C@@H](C=C(CO)C[C@]3(O)C(=O)C(C)=C[C@@H]23)[C@@H]2C(C)(C)[C@]12OC(C)=O [PMA, phorbal myristate acetate, reference compound]
- PGE2 (PGE2 [1]; PMA (10nM) alone, Control 32±6): 2371 ± 241 pg/mL

SMILES: CCCCCCCCCCCCOS(=O)(=O)[O-].[Na+] [SDS, sodium dodecyl sulphate, reference compound]
- Keratinocyte viability % of control Mean (Keratinocytes [2]; SDS 2 µg/ml alone (PA 0 µM)): 55.8 % of control

SMILES: CCCCCCCCCCC/C=C\CCCCC(=O)O [Petroselinic Acid, Petroselinic acid]
- Keratinocyte viability % of control Mean (Keratinocytes [2]; SDS 2 µg/ml + PA 0.1 µM): 94.5 % of control
- Keratinocyte viability % of control Mean (Keratinocytes [2]; SDS 2 µg/ml + PA 1.0 µM): 84.1 % of control
- Keratinocyte viability % of control Mean (Keratinocytes [2]; SDS 2 µg/ml + PA 10 µM): 85.8 % of control
- Keratinocyte PGE2 Levels Mean (PGE2 [3]; PA 0.1 µM): 150.1 pg/well
- Keratinocyte PGE2 Levels Mean (PGE2 [3]; PA 1 µM): 117.8 pg/well
- PGE2 (PGE2 [1]; PMA (10nM) + PA 0.1uM): 500 ± 12 pg/mL
- PGE2 (PGE2 [1]; PMA (10nM) + PA 1uM): 486 ± 93 pg/mL
- PGE2 (PGE2 [1]; PMA (10nM) + PA 10uM): 233 ± 139 pg/mL
- PGE2 (PGE2 [1]; PMA (10nM) + PA 100uM): 117 ± 39 pg/mL
- activity at 0.01 % ([4]; 0.01%): 79.5%
- activity at 0.013 % ([4]; 0.013%): 40.4%
- activity at 0.02 % ([4]; 0.02%): 55.3%
- activity at 0.04 % ([4]; 0.04%): 3.9%
- activity at 0.1 % ([4]; 0.1%): 19.3%
- viability at 72 h ([5]; 0.01%): 105%
- viability at 72 h ([5]; 0.013%): 105%
- viability at 72 h ([5]; 0.02%): 103%
- viability at 72 h ([5]; 0.04%): 69.9%
- viability at 72 h ([5]; 0.1%): 1%
- Cell viability (Keratinocytes [6]): not found to be adversely effected

SMILES: CC1=C(/C=C/C(C)=C/C=C/C(C)=C/C(=O)O)C(C)(C)CCC1 [Retinoic Acid, retinoic acid]
- No. of Participants showing marked increase in expression of procollagen-I (procollagen-I; [7]): 9
- No. of Participants showing marked increase in expression of procollagen-I (procollagen-I; [8]): 10
- No. of Participants showing marked increase in expression of decorin (decorin; [7]): 10
- No. of Participants showing marked increase in expression of decorin (decorin; [8]): 15
